According to the CheMixHub ionic liquid set:
± gives the uncertainty stated by the source.

Assay: xn = mol fraction of the nth substance listed

N[C@@H](Cc1c[nH]cn1)C(=O)O + CCCCCCCCCCCC[N+](C)(C)C.[Br-] + O
viscosity [mPa·s], 101 kPa
Conditions	293.15 K	298.15 K	303.15 K	308.15 K	313.15 K
x1 = 0.0001801, x2 = 0.0001083	1.03 ± 0.063	0.904 ± 0.055	0.816 ± 0.049	0.738 ± 0.045	0.668 ± 0.041
x1 = 0.0001801, x2 = 0.0001624	1.033 ± 0.063	0.908 ± 0.055	0.816 ± 0.05	0.741 ± 0.045	0.669 ± 0.041
x1 = 0.0001801, x2 = 0.0002165	1.035 ± 0.063	0.909 ± 0.055	0.821 ± 0.05	0.745 ± 0.045	0.67 ± 0.041
x1 = 0.0001801, x2 = 0.0002706	1.038 ± 0.063	0.918 ± 0.056	0.823 ± 0.05	0.748 ± 0.045	0.672 ± 0.041
x1 = 0.0001801, x2 = 0.0003247	1.043 ± 0.063	0.925 ± 0.056	0.827 ± 0.05	0.751 ± 0.046	0.674 ± 0.041
x1 = 0.0001801, x2 = 0.0003788	1.048 ± 0.064	0.927 ± 0.056	0.839 ± 0.051	0.753 ± 0.046	0.676 ± 0.041
x1 = 0.0001801, x2 = 0.0004329	1.056 ± 0.064	0.931 ± 0.057	0.843 ± 0.051	0.756 ± 0.046	0.68 ± 0.041
x1 = 0.0001801, x2 = 0.000487	1.06 ± 0.064	0.935 ± 0.057	0.849 ± 0.051	0.758 ± 0.046	0.685 ± 0.042
x1 = 0.0001801, x2 = 0.000541	1.062 ± 0.064	0.935 ± 0.057	0.851 ± 0.052	0.76 ± 0.046	0.689 ± 0.042
x1 = 0.0001802, x2 = 5.413e-05	1.027 ± 0.062	0.901 ± 0.055	0.815 ± 0.049	0.736 ± 0.045	0.667 ± 0.04
x1 = 0.0008997, x2 = 0.000544	1.041 ± 0.063	0.906 ± 0.055	0.823 ± 0.05	0.737 ± 0.045	0.651 ± 0.039
x1 = 0.0008998, x2 = 0.0003809	1.032 ± 0.063	0.891 ± 0.054	0.808 ± 0.049	0.728 ± 0.044	0.646 ± 0.039
x1 = 0.0008998, x2 = 0.0004352	1.035 ± 0.063	0.894 ± 0.054	0.812 ± 0.049	0.732 ± 0.044	0.647 ± 0.039
x1 = 0.0008998, x2 = 0.0004896	1.038 ± 0.063	0.9 ± 0.055	0.818 ± 0.05	0.734 ± 0.045	0.649 ± 0.039
x1 = 0.0008999, x2 = 0.0002721	1.029 ± 0.063	0.885 ± 0.054	0.803 ± 0.049	0.724 ± 0.044	0.644 ± 0.039
x1 = 0.0008999, x2 = 0.0003265	1.03 ± 0.063	0.888 ± 0.054	0.806 ± 0.049	0.727 ± 0.044	0.645 ± 0.039
x1 = 0.0009, x2 = 0.0001633	1.025 ± 0.062	0.879 ± 0.053	0.8 ± 0.049	0.722 ± 0.044	0.641 ± 0.039
x1 = 0.0009, x2 = 0.0002177	1.027 ± 0.062	0.881 ± 0.053	0.802 ± 0.049	0.722 ± 0.044	0.643 ± 0.039
x1 = 0.0009001, x2 = 5.443e-05	1.02 ± 0.062	0.874 ± 0.053	0.796 ± 0.048	0.721 ± 0.044	0.64 ± 0.039
x1 = 0.0009001, x2 = 0.0001089	1.022 ± 0.062	0.876 ± 0.053	0.799 ± 0.048	0.721 ± 0.044	0.64 ± 0.039
x1 = 0.001798, x2 = 0.0001644	1.065 ± 0.065	0.915 ± 0.056	0.85 ± 0.052	0.756 ± 0.046	0.685 ± 0.042
x1 = 0.001798, x2 = 0.0002191	1.067 ± 0.065	0.916 ± 0.056	0.854 ± 0.052	0.759 ± 0.046	0.688 ± 0.042
x1 = 0.001798, x2 = 0.0002739	1.068 ± 0.065	0.919 ± 0.056	0.858 ± 0.052	0.76 ± 0.046	0.691 ± 0.042
x1 = 0.001798, x2 = 0.0003287	1.07 ± 0.065	0.92 ± 0.056	0.862 ± 0.052	0.764 ± 0.046	0.693 ± 0.042
x1 = 0.001798, x2 = 0.0003835	1.072 ± 0.065	0.923 ± 0.056	0.867 ± 0.053	0.771 ± 0.047	0.696 ± 0.042
x1 = 0.001798, x2 = 0.0004382	1.079 ± 0.066	0.927 ± 0.056	0.87 ± 0.053	0.776 ± 0.047	0.701 ± 0.043
x1 = 0.001798, x2 = 0.000493	1.083 ± 0.066	0.931 ± 0.056	0.876 ± 0.053	0.781 ± 0.047	0.706 ± 0.043
x1 = 0.001798, x2 = 0.0005477	1.089 ± 0.066	0.939 ± 0.057	0.881 ± 0.053	0.786 ± 0.048	0.709 ± 0.043
x1 = 0.001799, x2 = 5.48e-05	1.061 ± 0.064	0.908 ± 0.055	0.842 ± 0.051	0.751 ± 0.046	0.68 ± 0.041
x1 = 0.001799, x2 = 0.0001096	1.064 ± 0.065	0.912 ± 0.055	0.846 ± 0.051	0.755 ± 0.046	0.683 ± 0.041

CCCCCCC(O)CO (configuration not stated) + CCCCCCCC[N+](CCCCCCCC)(CCCCCCCC)CCCCCCCC.[Br-] + [Cl-].[Cl-].[Co+2]
Conditions	viscosity [mPa·s]
296.1 K, 101.3 kPa, x2 = 0.4, x3 = 0.2	27000

CC(=O)N(C)C + CCCC[n+]1ccn(C)c1.F[B-](F)(F)F
viscosity [mPa·s], 101 kPa
Conditions	293.15 K	298.15 K	303.15 K	308.15 K	313.15 K	318.15 K	323.15 K
x1 = 1	–	–	–	–	0.778 ± 0.011	–	–
x2 = 0	1.02 ± 0.15	0.94 ± 0.14	0.87 ± 0.13	0.82 ± 0.12	0.78 ± 0.12	0.74 ± 0.11	0.72 ± 0.11

CCC(C)=O + CCCC[n+]1ccn(C)c1.F[B-](F)(F)F
viscosity [mPa·s]
Conditions	298.15 K	303.15 K	313.15 K	323.15 K	333.15 K
100 kPa, x2 = 0	–	0.367 ± 0.005	0.333 ± 0.004	0.304 ± 0.004	0.29 ± 0.004
100 kPa, x2 = 0.0997	–	0.817 ± 0.01	0.737 ± 0.009	0.688 ± 0.008	0.595 ± 0.007
100 kPa, x2 = 0.1995	–	1.594 ± 0.018	1.424 ± 0.016	1.27 ± 0.015	1.189 ± 0.014
100 kPa, x2 = 0.2996	–	2.941 ± 0.033	2.486 ± 0.028	2.135 ± 0.024	1.878 ± 0.021
100 kPa, x2 = 0.3997	–	5.054 ± 0.057	4.146 ± 0.047	3.479 ± 0.039	2.97 ± 0.034
100 kPa, x2 = 0.5001	–	8.51 ± 0.094	6.778 ± 0.075	5.465 ± 0.061	4.57 ± 0.051
100 kPa, x2 = 0.6001	–	14.01 ± 0.15	10.62 ± 0.12	8.302 ± 0.091	6.74 ± 0.075
100 kPa, x2 = 0.6998	–	22.67 ± 0.24	16.37 ± 0.18	12.55 ± 0.14	9.78 ± 0.11
100 kPa, x2 = 0.7999	–	35.13 ± 0.38	24.24 ± 0.26	17.78 ± 0.19	13.54 ± 0.15
100 kPa, x2 = 0.8993	–	54.16 ± 0.55	35.18 ± 0.38	24.79 ± 0.27	18.41 ± 0.2
101.33 kPa, x1 = 0.1005	67.9 ± 6	–	–	–	–
101.33 kPa, x1 = 0.3107	22.7 ± 1.6	–	–	–	–
101.33 kPa, x1 = 0.6995	3.17 ± 0.29	–	–	–	–
